Measured values reported in patent publication US20220265694A1, “COMPOSITIONS AND METHODS FOR TREATING AN INFECTION” (CMPD LICENSING, LLC, priority 2016, published 2022).

Columns and labels:
Coccidioides immitis = conditions: expected efficacy against Coccidioides immitis
Cryptococcus neoformans = experiment: Expected efficacy of antifungal agents; conditions: expected efficacy against Cryptococcus neoformans
Aspergillus niger = experiment: Expected efficacy of antifungal agents; conditions: expected efficacy against Aspergillus niger
Histoplasma capsulatum = conditions: expected efficacy against Histoplasma capsulatum
Blastomyces dermatitidis = experiment: Expected efficacy of antifungal agents; conditions: expected efficacy against Blastomyces dermatitidis
Candida species = experiment: Expected efficacy of antifungal agents; conditions: expected efficacy against Candida species
Aspergillus flavus = experiment: Expected efficacy of antifungal agents; conditions: expected efficacy against Aspergillus flavus
Aspergillus fumigatus = experiment: Expected efficacy of antifungal agents; conditions: expected efficacy against Aspergillus fumigatus
Aspergillus terreus = experiment: Expected efficacy of antifungal agents; conditions: expected efficacy against Aspergillus terreus
[1] = system: Paracoccidioides brasiliensis; experiment: Expected efficacy of antifungal agents; conditions: expected efficacy against Paracoccidioides brasiliensis
Leishmania infantum = experiment: Expected efficacy of antifungal agents; conditions: expected efficacy against Leishmania infantum
Leishmania donovani = experiment: Expected efficacy of antifungal agents; conditions: expected efficacy against Leishmania donovani
Clostridium difficile = experiment: Expected efficacy of antibiotic agents; conditions: expected efficacy against Clostridium difficile; Gram: anaer
Shigella dysenteriae = experiment: Expected efficacy of antibiotic agents; conditions: expected efficacy against Shigella dysenteriae; Gram: neg
Pseudomonas aeruginosa = experiment: Expected efficacy of antibiotic agents; conditions: expected efficacy against Pseudomonas aeruginosa; Gram: neg
Klebsiella pneumoniae = experiment: Expected efficacy of antibiotic agents; conditions: expected efficacy against Klebsiella pneumoniae; Gram: neg
Enterobacter cloacae = experiment: Expected efficacy of antibiotic agents; conditions: expected efficacy against Enterobacter cloacae; Gram: neg
Neisseria meningitidis = experiment: Expected efficacy of antibiotic agents; conditions: expected efficacy against Neisseria meningitidis; Gram: neg
Proteus mirabilis = experiment: Expected efficacy of antibiotic agents; conditions: expected efficacy against Proteus mirabilis; Gram: neg
Pseudomonas fluorescens = experiment: Expected efficacy of antibiotic agents; conditions: expected efficacy against Pseudomonas fluorescens; Gram: neg
Moraxella catarrhalis = experiment: Expected efficacy of antibiotic agents; conditions: expected efficacy against Moraxella catarrhalis; Gram: neg
Yersinia pestis = conditions: expected efficacy against Yersinia pestis; Gram: neg
Citrobacter freundii = experiment: Expected efficacy of antibiotic agents; conditions: expected efficacy against Citrobacter freundii; Gram: neg
Enterococcus faecium = experiment: Expected efficacy of antibiotic agents; conditions: expected efficacy against Enterococcus faecium; Gram: pos
Legionella pneumophila = conditions: expected efficacy against Legionella pneumophila; Gram: neg
Acinetobacter lwoffii = experiment: Expected efficacy of antibiotic agents; conditions: expected efficacy against Acinetobacter lwoffii; Gram: neg
Escherichia coli = experiment: Expected efficacy of antibiotic agents; conditions: expected efficacy against Escherichia coli; Gram: neg
Vibrio cholerae = experiment: Expected efficacy of antibiotic agents; conditions: expected efficacy against Vibrio cholerae; Gram: neg
Serratia marcescens = experiment: Expected efficacy of antibiotic agents; conditions: expected efficacy against Serratia marcescens; Gram: neg
Chlamydia trachomatis = experiment: Expected efficacy of antibiotic agents; conditions: expected efficacy against Chlamydia trachomatis; Gram: n/a
Neisseria gonorrhoeae = experiment: Expected efficacy of antibiotic agents; conditions: expected efficacy against Neisseria gonorrhoeae; Gram: neg
Enterobacter sakazakii = experiment: Expected efficacy of antibiotic agents; conditions: expected efficacy against Enterobacter sakazakii; Gram: neg
Campylobacter jejuni = experiment: Expected efficacy of antibiotic agents; conditions: expected efficacy against Campylobacter jejuni; Gram: neg
Shigella boydii = experiment: Expected efficacy of antibiotic agents; conditions: expected efficacy against Shigella boydii; Gram: neg
Bordetella pertussis = experiment: Expected efficacy of antibiotic agents; conditions: expected efficacy against Bordetella pertussis; Gram: neg
Haemophilus ducreyi = experiment: Expected efficacy of antibiotic agents; conditions: expected efficacy against Haemophilus ducreyi; Gram: neg
Shigella flexneri = experiment: Expected efficacy of antibiotic agents; conditions: expected efficacy against Shigella flexneri; Gram: neg
Corynebacterium jeikeium = experiment: Expected efficacy of antibiotic agents; conditions: expected efficacy against Corynebacterium jeikeium; Gram: pos
[2] = system: Methicillin resistant staph aureus (MRSA); experiment: Expected efficacy of antibiotic agents; conditions: expected efficacy against Methicillin resistant staph aureus (MRSA); Gram: pos
Chlamydia psittaci = conditions: expected efficacy against Chlamydia psittaci; Gram: n/a
Enterococcus faecalis = experiment: Expected efficacy of antibiotic agents; conditions: expected efficacy against Enterococcus faecalis; Gram: pos
[3] = system: Klebsiella (Calymmatobacterium); experiment: Expected efficacy of antibiotic agents; conditions: expected efficacy against Klebsiella (Calymmatobacterium); Gram: neg
Acinetobacter baumannii = experiment: Expected efficacy of antibiotic agents; conditions: expected efficacy against Acinetobacter baumannii; Gram: neg
Enterobacter aerogenes = experiment: Expected efficacy of antibiotic agents; conditions: expected efficacy against Enterobacter aerogenes; Gram: neg
Bacteroides fragilis = experiment: Expected efficacy of antibiotic agents; conditions: expected efficacy against Bacteroides fragilis; Gram: anaer
Proteus vulgaris = experiment: Expected efficacy of antibiotic agents; conditions: expected efficacy against Proteus vulgaris; Gram: neg
Peptostreptococcus = experiment: Expected efficacy of antibiotic agents; conditions: expected efficacy against Peptostreptococcus; Gram: pos
[4] = system: Staphylococcus epidermidis; experiment: Expected efficacy of antibiotic agents; conditions: expected efficacy against Staphylococcus epidermidis; Gram: pos
Haemophilus influenzae = experiment: Expected efficacy of antibiotic agents; conditions: expected efficacy against Haemophilus influenzae; Gram: neg
Clostridium perfringens = conditions: expected efficacy against Clostridium perfringens; Gram: anaer
[5] = system: Viridans group streptococci; experiment: Expected efficacy of antibiotic agents; conditions: expected efficacy against Viridans group streptococci; Gram: pos
Citrobacter diversus = experiment: Expected efficacy of antibiotic agents; conditions: expected efficacy against Citrobacter diversus; Gram: neg
Streptococcus agalactiae = experiment: Expected efficacy of antibiotic agents; conditions: expected efficacy against Streptococcus agalactiae; Gram: pos
Streptococcus pneumoniae = experiment: Expected efficacy of antibiotic agents; conditions: expected efficacy against Streptococcus pneumoniae; Gram: pos
[6] = system: Staphylococcus aureus (MSSA); experiment: Expected efficacy of antibiotic agents; conditions: expected efficacy against Staphylococcus aureus (MSSA); Gram: pos
Streptococcus pyogenes = experiment: Expected efficacy of antibiotic agents; conditions: expected efficacy against Streptococcus pyogenes; Gram: pos
Shigella sonnei = experiment: Expected efficacy of antibiotic agents; conditions: expected efficacy against Shigella sonnei; Gram: neg
Mycoplasma pneumoniae = experiment: Expected efficacy of antibiotic agents; conditions: expected efficacy against Mycoplasma pneumoniae; Gram: n/a
Klebsiella oxytoca = experiment: Expected efficacy of antibiotic agents; conditions: expected efficacy against Klebsiella oxytoca; Gram: neg
[7] = system: Corynebacterium urealyticum; experiment: Expected efficacy of antibiotic agents; conditions: expected efficacy against Corynebacterium urealyticum; Gram: pos
[8] = system: Acinetobacter calcoaceticus; experiment: Expected efficacy of antibiotic agents; conditions: expected efficacy against Acinetobacter calcoaceticus; Gram: neg
Chlamydia pneumoniae = experiment: Expected efficacy of antibiotic agents; conditions: expected efficacy against Chlamydia pneumoniae; Gram: n/a
Fusarium species = experiment: Expected efficacy of antifungal agents; conditions: expected efficacy against Fusarium species
Scedosporium apiospermum = experiment: Expected efficacy of antifungal agents; conditions: expected efficacy against Scedosporium apiospermum
Providencia rettgeri = experiment: Expected efficacy of antibiotic agents; conditions: expected efficacy against Providencia rettgeri; Gram: neg
Providencia stuartii = experiment: Expected efficacy of antibiotic agents; conditions: expected efficacy against Providencia stuartii; Gram: neg
Brucella species = conditions: expected efficacy against Brucella species; Gram: neg
[9] = system: Haemophilus parainfluenzae; experiment: Expected efficacy of antibiotic agents; conditions: expected efficacy against Haemophilus parainfluenzae; Gram: neg
Diphtheroids = experiment: Expected efficacy of antibiotic agents; conditions: expected efficacy against Diphtheroids; Gram: pos

C[C@@H]1[C@H](O)[C@@H](C)/C=C/C=C/C=C/C=C/C=C/C=C/C=C/[C@H](O[C@@H]2O[C@H](C)[C@@H](O)[C@H](N)[C@@H]2O)C[C@@H]2O[C@](O)(C[C@@H](O)C[C@@H](O)[C@H](O)CC[C@@H](O)C[C@@H](O)CC(=O)O[C@H]1C)C[C@H](O)[C@H]2C(=O)O [Amphotericin]
Efficacy (Coccidioides immitis): yes
Efficacy (Cryptococcus neoformans): yes
Efficacy (Aspergillus niger): yes
Efficacy (Histoplasma capsulatum): yes
Efficacy (Blastomyces dermatitidis): yes
Efficacy (Candida species): yes
Efficacy (Aspergillus flavus): yes
Efficacy (Aspergillus fumigatus): yes
Efficacy (Aspergillus terreus): yes
Efficacy [1]: yes
Efficacy (Leishmania infantum): yes
Efficacy (Leishmania donovani): yes

OC(Cn1cncn1)(Cn1cncn1)c1ccc(F)cc1F [Fluconazole]
Efficacy (Coccidioides immitis): yes
Efficacy (Cryptococcus neoformans): yes
Efficacy (Histoplasma capsulatum): yes
Efficacy (Blastomyces dermatitidis): yes
Efficacy (Candida species): yes
Efficacy (Aspergillus flavus): yes
Efficacy (Aspergillus fumigatus): yes

NC[C@H]1O[C@H](O[C@H]2[C@H](O)[C@@H](O[C@H]3O[C@H](CO)[C@@H](O)[C@H](N)[C@H]3O)[C@H](N)C[C@@H]2N)[C@H](N)C[C@@H]1O [Tobramycin]
Efficacy (Clostridium difficile): no
Efficacy (Shigella dysenteriae): yes
Efficacy (Pseudomonas aeruginosa): yes
Efficacy (Klebsiella pneumoniae): yes
Efficacy (Enterobacter cloacae): yes
Efficacy (Neisseria meningitidis): no
Efficacy (Proteus mirabilis): yes
Efficacy (Pseudomonas fluorescens): yes
Efficacy (Moraxella catarrhalis): yes
Efficacy (Yersinia pestis): yes
Efficacy (Citrobacter freundii): yes
Efficacy (Enterococcus faecium): no
Efficacy (Legionella pneumophila): no
Efficacy (Acinetobacter lwoffii): no
Efficacy (Escherichia coli): yes
Efficacy (Vibrio cholerae): no
Efficacy (Serratia marcescens): yes
Efficacy (Chlamydia trachomatis): no
Efficacy (Neisseria gonorrhoeae): no
Efficacy (Enterobacter sakazakii): yes
Efficacy (Campylobacter jejuni): yes
Efficacy (Shigella boydii): yes
Efficacy (Bordetella pertussis): no
Efficacy (Haemophilus ducreyi): yes
Efficacy (Shigella flexneri): yes
Efficacy (Corynebacterium jeikeium): no
Efficacy [2]: no
Efficacy (Chlamydia psittaci): no
Efficacy (Enterococcus faecalis): no
Efficacy [3]: yes
Efficacy (Acinetobacter baumannii): no
Efficacy (Enterobacter aerogenes): yes
Efficacy (Bacteroides fragilis): no
Efficacy (Proteus vulgaris): yes
Efficacy (Peptostreptococcus): no
Efficacy [4]: no
Efficacy (Haemophilus influenzae): yes
Efficacy (Clostridium perfringens): no
Efficacy [5]: no
Efficacy (Citrobacter diversus): yes
Efficacy (Streptococcus agalactiae): no
Efficacy (Streptococcus pneumoniae): no
Efficacy [6]: no
Efficacy (Streptococcus pyogenes): no
Efficacy (Shigella sonnei): yes
Efficacy (Mycoplasma pneumoniae): no
Efficacy (Klebsiella oxytoca): yes
Efficacy [7]: no
Efficacy [8]: no
Efficacy (Chlamydia pneumoniae): no

C[C@@H](c1ncncc1F)[C@](O)(Cn1cncn1)c1ccc(F)cc1F [Voriconazole]
Efficacy (Fusarium species): yes
Efficacy (Aspergillus niger): yes
Efficacy (Scedosporium apiospermum): yes
Efficacy (Candida species): yes
Efficacy (Aspergillus flavus): yes
Efficacy (Aspergillus fumigatus): yes
Efficacy (Aspergillus terreus): yes

Colistimethate
Efficacy (Clostridium difficile): no
Efficacy (Pseudomonas aeruginosa): yes
Efficacy (Klebsiella pneumoniae): yes
Efficacy (Enterobacter cloacae): yes
Efficacy (Providencia rettgeri): no
Efficacy (Neisseria meningitidis): no
Efficacy (Proteus mirabilis): no
Efficacy (Pseudomonas fluorescens): yes
Efficacy (Providencia stuartii): no
Efficacy (Moraxella catarrhalis): no
Efficacy (Enterococcus faecium): no
Efficacy (Legionella pneumophila): no
Efficacy (Escherichia coli): yes
Efficacy (Vibrio cholerae): no
Efficacy (Serratia marcescens): no
Efficacy (Brucella species): no
Efficacy (Chlamydia trachomatis): no
Efficacy (Neisseria gonorrhoeae): no
Efficacy (Enterobacter sakazakii): yes
Efficacy (Bordetella pertussis): no
Efficacy (Corynebacterium jeikeium): no
Efficacy [2]: no
Efficacy (Chlamydia psittaci): no
Efficacy [9]: no
Efficacy (Enterococcus faecalis): no
Efficacy [3]: yes
Efficacy (Enterobacter aerogenes): yes
Efficacy (Bacteroides fragilis): no
Efficacy (Proteus vulgaris): no
Efficacy (Peptostreptococcus): no
Efficacy [4]: no
Efficacy [5]: no
Efficacy (Streptococcus agalactiae): no
Efficacy (Streptococcus pneumoniae): no
Efficacy (Diphtheroids): no
Efficacy [6]: no
Efficacy (Streptococcus pyogenes): no
Efficacy (Mycoplasma pneumoniae): no
Efficacy (Klebsiella oxytoca): yes
Efficacy [7]: no
Efficacy (Chlamydia pneumoniae): no
